“And” between values parts separate entries of the source, which are not always exact repeats. Equal values may be shown once. Read-outs that look alike come from different tables or passages of the source.
Experiment: Plasma pharmacokinetics after oral multi-dose anatabine polacrilex
Assay type: in vivo, Sprague-Dawley rats
Conditions: for Anatabine Concentration in rat plasma: dose 2 mg/kg; for Avg. Conc. of anatabine in plasma: dose group 2, female; for concentration at 30 min / concentration at 60 min / concentration at 235 min / concentration at 270 min / concentration at 300 min / concentration at 475 min / concentration at 540 min / concentration at 600 min / concentration at 720 min / Tmax / half-life: Sprague-Dawley, rat, plasma; for concentration at 30 min / concentration at 60 min / concentration at 235 min / concentration at 270 min / concentration at 300 min / concentration at 475 min / concentration at 540 min / concentration at 600 min / concentration at 720 min: oral; for Tmax / half-life: po; for half-life: mean
Experimental: This study consisted of two groups of 8 animals each, 4 males and 4 females.
Two formulations were prepared; one for each of the two treatment groups. The test compound was formulated for each treatment group just prior to the first dose administration and constantly stirred until dosing was completed (Table 37). Four aliquots of each dose level formulation were collected and stored at −80° C.
The animals were weighed prior to dosing and received three doses p.o. of test compound at a volume of 5 mL/kg. Blood was collected via the venus plexus (retro-orbital) into tubes containing (K2) EDTA. No more than 0.5 mL was collected per time point.
Plasma was separated as per package instructions for MICROTAINER® brand collection tubes (3 minutes, 2000×g). Plasma was decanted into microfuge tubes and stored at −80° C. Remaining test compound was placed at −80° C.
Sample preparation. Plasma samples were treated with three volumes of methanol containing internal standard at 1 μM (R,S)-Antabine-2,4,5,6-d4), incubated 10 min at 4° C., and centrifuged. The amount of the test agent in the supernatant was determined by LC/MS/MS.
Analysis. Samples were analyzed by LC/MS/MS using an Agilent 6410 mass spectrometer coupled with an Agilent 1200 high pressure liquid chromatography (HPLC) and a CTC PAL chilled autosampler, all controlled by MassHunter software (Agilent). After separation on a Hydrophilic interaction liquid chromatography (HILIC) HPLC column (Sepax) using an acetonitrile-ammonium acetate/acetic acid gradient system, peaks were analyzed by mass spectrometry (MS) using ESI ionization in multiple reaction monitoring (MRM) mode. MassHunter software was used to calculate the concentration of the test compounds in samples from the peak area using the appropriate calibration curves.
Calibration samples. Calibration curves were determined in rat plasma. Calibration samples were prepared by diluting a 50× stock solution of the test compound in PBS with blank matrix to the appropriate concentration and these samples were prepared as described above in the sample preparation.
Data Analysis. Descriptive statistics were calculated for all pharmacokinetic parameters. Elimination half-lives (t1/2) were calculated by linear regression of logarithmically transformed plasma concentration data for each period between doses and following the final dose.
Total areas under the plasma concentration curves (AUC) and under the first moment curves (AUMC) were calculated using linear trapezoidal summation across all concentration time points as well as for intervals between each dose administration and following the final dose. […] Mean absorption times (MAT) were calculated according to the following relation: […]
where MRT represents the mean residence time. This was calculated from the mean residence times.
The statistical comparison of parameters between male and female animals was made using a two-tailed, unpaired, t-test with a 95 percent confidence interval. Repeated-measures analysis of variance (ANOVA) was used for multiple comparisons of Cp, max involving successive determinations on the same group of animals.

[1] = females, 6.0 mg/kg BW group, anatabine polacrilex p.o.

C1=CCC(c2cccnc2)NC1 (racemic) [Anatabine, 1,2,3,6-tetrahydro-[2,3′]bipyridinyl]
Anatabine Concentration in rat plasma (female, 270 min, individual animals 4A-4D): 324 ng/mL and 350 ng/mL | Anatabine Concentration in rat plasma (female, 300 min, individual animals 4A-4D): 216 ng/mL and 97 ng/mL and 191 ng/mL and 414 ng/mL | Anatabine Concentration in rat plasma (female, 475 min, individual animals 4A-4D): 219 ng/mL and 178 ng/mL and 179 ng/mL | Anatabine Concentration in rat plasma (female, 540 min, individual animals 4A-4D): 231 ng/mL and 314 ng/mL and 369 ng/mL and 474 ng/mL | Anatabine Concentration in rat plasma (female, 600 min, individual animals 4A-4D): 197 ng/mL and 207 ng/mL and 480 ng/mL and 288 ng/mL | Anatabine Concentration in rat plasma (female, 720 min, individual animals 4A-4D): 165 ng/mL and 217 ng/mL | Anatabine Concentration in rat plasma (male, 235 min, individual animals 3A-3D): 46 ng/mL and 63 ng/mL and 105 ng/mL | Anatabine Concentration in rat plasma (male, 270 min, individual animals 3A-3D): 364 ng/mL and 309 ng/mL | Anatabine Concentration in rat plasma (male, 300 min, individual animals 3A-3D): 232 ng/mL and 202 ng/mL | Anatabine Concentration in rat plasma (male, 475 min, individual animals 3A-3D): 97 ng/mL | Anatabine Concentration in rat plasma (male, 540 min, individual animals 3A-3D): 290 ng/mL and 173 ng/mL | Anatabine Concentration in rat plasma (male, 600 min, individual animals 3A-3D): 173 ng/mL and 130 ng/mL and 150 ng/mL | Anatabine Concentration in rat plasma (male, 720 min, individual animals 3A-3D): 401 ng/mL and 137 ng/mL and 71 ng/mL | Avg. Conc. of anatabine in plasma (30 min): 160 ng/mL | Avg. Conc. of anatabine in plasma (60 min): 129 ng/mL | Avg. Conc. of anatabine in plasma (235 min): 44 ng/mL | Avg. Conc. of anatabine in plasma (270 min): 316 ng/mL | Avg. Conc. of anatabine in plasma (300 min): 234 ng/mL | Avg. Conc. of anatabine in plasma (540 min): 386 ng/mL | Avg. Conc. of anatabine in plasma (600 min): 325 ng/mL | Avg. Conc. of anatabine in plasma (720 min): 208 ng/mL | concentration at 30 min (female, 0.2 mg/kg BW, Avg. Conc. of anatabine in plasma, dose group 0.2, female, 30 min): 37 ng/mL | concentration at 60 min (female, 0.2 mg/kg BW, Avg. Conc. of anatabine in plasma, dose group 0.2, female, 60 min): 35 ng/mL | concentration at 235 min (female, 0.2 mg/kg BW, Avg. Conc. of anatabine in plasma, dose group 0.2, female, 235 min): 12 ng/mL | concentration at 270 min (female, 0.2 mg/kg BW, Avg. Conc. of anatabine in plasma, dose group 0.2, female, 270 min): 26 ng/mL | concentration at 300 min (female, 0.2 mg/kg BW, Avg. Conc. of anatabine in plasma, dose group 0.2, female, 300 min): 34 ng/mL | concentration at 475 min (female, 0.2 mg/kg BW, Avg. Conc. of anatabine in plasma, dose group 0.2, female, 475 min): 8 ng/mL | concentration at 540 min (female, 0.2 mg/kg BW, Avg. Conc. of anatabine in plasma, dose group 0.2, female, 540 min): 34 ng/mL | concentration at 600 min (female, 0.2 mg/kg BW, Avg. Conc. of anatabine in plasma, dose group 0.2, female, 600 min): 28 ng/mL | concentration at 720 min (female, 0.2 mg/kg BW, Avg. Conc. of anatabine in plasma, dose group 0.2, female, 720 min): 12 ng/mL | concentration at 30 min (female, 0.2 mg/kg, Anatabine Concentration in rat plasma, 30 min, individual animals 2A-2D): 34 ng/mL | concentration at 60 min (female, 0.2 mg/kg, Anatabine Concentration in rat plasma, 60 min, individual animals 2A-2D): 29 ng/mL | concentration at 475 min (female, 0.2 mg/kg, Anatabine Concentration in rat plasma, 475 min, individual animals 2A-2D): 7 ng/mL | concentration at 540 min (female, 0.2 mg/kg, Anatabine Concentration in rat plasma, 540 min, individual animals 2A-2D): 24 ng/mL | concentration at 270 min (female, 2 mg/kg, Anatabine Concentration in rat plasma, 270 min, individual animals 4A-4D): 237 ng/mL | concentration at 475 min (female, 2 mg/kg, Anatabine Concentration in rat plasma, 475 min, individual animals 4A-4D): 144 ng/mL | concentration at 720 min (female, 2 mg/kg, Anatabine Concentration in rat plasma, 720 min, individual animals 4A-4D): 186 ng/mL | Tmax (female, 0.6 mg/kg, female rats, after dose 1, mean, read-out: Tmax(1)): 37.8 min | Tmax (female, 0.6 mg/kg, female rats, after dose 2, mean, read-out: Tmax(2)): 52.8 min | Tmax (female, 0.6 mg/kg, female rats, after dose 3, mean, read-out: Tmax(3)): 75 min | half-life (female, 0.6 mg/kg, female rats, after first dose, read-out: t1/2,0→4 (converted)): 124 min | half-life (female, 0.6 mg/kg, female rats, read-out: t1/2, terminal (converted)): 108 min | Tmax (female, 6 mg/kg, female rats, after dose 1, mean, read-out: Tmax(1)): 30 min | Tmax (female, 6 mg/kg, female rats, after dose 2, mean, read-out: Tmax(2)): 37.8 min | Tmax (female, 6 mg/kg, female rats, after dose 3, mean, read-out: Tmax(3)): 75 min | half-life (female, 6 mg/kg, female rats, after first dose, read-out: t1/2,0→4 (converted)): 109 min | half-life (female, 6 mg/kg, female rats, read-out: t1/2, terminal (converted)): 239 min | half-life (female, both treatment groups combined, female rats, read-out: t1/2,0→4 (converted)): 116 min | Cp, max, initial value (increase from) [1]: 259.8 ± 35.4 ng/mL | Cp, max, later value (increase to) [1]: 374.8 ± 122.9 ng/mL | Cp, min, first minimum [1]: 51.5 ± 26.0 ng/mL | Cp, min(2), second minimum (females, 6.0 mg/kg BW group, anatabine polacrilex p.o., 6 mg/kg): 180 ± 31 ng/mL and 180.0 ± 30.7 ng/mL | concentration at 300 min (male, 0.2 mg/kg BW, Avg. Conc. of anatabine in plasma, dose group 0.2, male, 300 min): 26 ng/mL | concentration at 475 min (male, 0.2 mg/kg BW, Avg. Conc. of anatabine in plasma, dose group 0.2, male, 475 min): 18 ng/mL | concentration at 540 min (male, 0.2 mg/kg BW, Avg. Conc. of anatabine in plasma, dose group 0.2, male, 540 min): 38 ng/mL | concentration at 600 min (male, 0.2 mg/kg BW, Avg. Conc. of anatabine in plasma, dose group 0.2, male, 600 min): 29 ng/mL | concentration at 720 min (male, 0.2 mg/kg BW, Avg. Conc. of anatabine in plasma, dose group 0.2, male, 720 min): 12 ng/mL | concentration at 30 min (male, 0.2 mg/kg, Anatabine Concentration in rat plasma, 30 min, individual animals 1A-1D): 29 ng/mL | concentration at 60 min (male, 0.2 mg/kg, Anatabine Concentration in rat plasma, 60 min, individual animals 1A-1D): 32 ng/mL | concentration at 235 min (male, 0.2 mg/kg, Anatabine Concentration in rat plasma, 235 min, individual animals 1A-1D): 11 ng/mL | concentration at 270 min (male, 0.2 mg/kg, Anatabine Concentration in rat plasma, 270 min, individual animals 1A-1D): 35 ng/mL | concentration at 300 min (male, 0.2 mg/kg, Anatabine Concentration in rat plasma, 300 min, individual animals 1A-1D): 22 ng/mL | concentration at 30 min (male, 0.2 mg/kg, Avg. Conc. of anatabine in plasma, dose group 0.2, male, 30 min): 33 ng/mL | concentration at 60 min (male, 0.2 mg/kg, Avg. Conc. of anatabine in plasma, dose group 0.2, male, 60 min): 30 ng/mL | concentration at 235 min (male, 0.2 mg/kg, Avg. Conc. of anatabine in plasma, dose group 0.2, male, 235 min): 11 ng/mL | concentration at 270 min (male, 0.2 mg/kg, Avg. Conc. of anatabine in plasma, dose group 0.2, male, 270 min): 26 ng/mL | concentration at 30 min (male, 2 mg/kg BW, Avg. Conc. of anatabine in plasma, dose group 2, male, 30 min): 243 ng/mL | concentration at 235 min (male, 2 mg/kg BW, Avg. Conc. of anatabine in plasma, dose group 2, male, 235 min): 72 ng/mL | concentration at 270 min (male, 2 mg/kg BW, Avg. Conc. of anatabine in plasma, dose group 2, male, 270 min): 303 ng/mL | concentration at 300 min (male, 2 mg/kg BW, Avg. Conc. of anatabine in plasma, dose group 2, male, 300 min): 183 ng/mL | concentration at 475 min (male, 2 mg/kg BW, Avg. Conc. of anatabine in plasma, dose group 2, male, 475 min): 97 ng/mL | concentration at 540 min (male, 2 mg/kg BW, Avg. Conc. of anatabine in plasma, dose group 2, male, 540 min): 226 ng/mL | concentration at 600 min (male, 2 mg/kg BW, Avg. Conc. of anatabine in plasma, dose group 2, male, 600 min): 151 ng/mL | concentration at 720 min (male, 2 mg/kg BW, Avg. Conc. of anatabine in plasma, dose group 2, male, 720 min): 203 ng/mL | concentration at 475 min (male, 2 mg/kg, Anatabine Concentration in rat plasma, 475 min, individual animals 3A-3D): 79 ng/mL | concentration at 540 min (male, 2 mg/kg, Anatabine Concentration in rat plasma, 540 min, individual animals 3A-3D): 214 ng/mL | Tmax (male, 0.6 mg/kg, male rats, after dose 1, mean, read-out: Tmax(1)): 45 min | Tmax (male, 0.6 mg/kg, male rats, after dose 2, mean, read-out: Tmax(2)): 37.8 min | Tmax (male, 0.6 mg/kg, male rats, after dose 3, mean, read-out: Tmax(3)): 60 min | half-life (male, 0.6 mg/kg, male rats, after first dose, read-out: t1/2,0→4 (converted)): 123 min | half-life (male, 0.6 mg/kg, male rats, read-out: t1/2, terminal (converted)): 107 min | Tmax (male, 6 mg/kg, male rats, after dose 1, mean, read-out: Tmax(1)): 37.8 min | Tmax (male, 6 mg/kg, male rats, after dose 2, mean, read-out: Tmax(2)): 37.8 min | Tmax (male, 6 mg/kg, male rats, after dose 3, mean, read-out: Tmax(3)): 120 min | half-life (male, 6 mg/kg, male rats, after first dose, read-out: t1/2,0→4 (converted)): 106 min | half-life (male, 6 mg/kg, male rats, read-out: t1/2, terminal (converted)): 304 min | half-life (male, both treatment groups combined, male rats, read-out: t1/2,0→4 (converted)): 115 min
